System: PDC KRAS tumor spheroids with HUVEC/MSC, viability
Assay: Anticancer human tumor 349418-098-R-PDC patient-derived lung adenocarcinoma cell line growth inhibition [KRAS2]
Settings: for IC50: curve of first compound; for viability, T/C: stronger effect = lower value
Text: Multicellular complex tumor spheroid response to RAS pathway inhibitors in combination with a targeted agents in patient-derived cell lines with oncogenic KRAS variants from multiple cancer types
A high-throughput screen of multi-cell type tumor spheroids was designed to identify active combinations of targeted small molecules and KRAS pathway inhibitors. Complex spheroids include a stromal component modeled by human endothelial cells (HUVEC) and fibroblasts modeled by human mesenchymal stem cells (MSCs). The concentration ranges selected for each drug and investigational agent were based upon clinically achievable concentrations if the clinical Cmax of the agent was known.
Compounds. The drugs and investigational agents: BI-3406 (NSC825286), BAY-293 (NSC824723), batoprotafib (TNO155; NSC825523), sotorasib (AMG 510; NSC818433), MRTX1257 (NSC819558), elimusertib (BAY 1895344; NSC800525), molibresib (GSK525762; NSC774829), temuterkib (LY3214996; NSC803410), venetoclax (NSC766270), alisertib (NSC759677), olaparib (NSC753686), talazoparib (NSC767125), erdafitinib (NSC781556), ipatasertib (NSC767898), cabozantinib (NSC761068), nintedanib (NSC756659), abemaciclib (NSC768073), docetaxel (NSC628503), trametinib (NSC758246), and sapanisertib (NSC764658) were obtained from the National Cancer Institute (NCI) Developmental Therapeutics Program Chemical Repository. The FDA-approved anticancer drug set is available from the Developmental Therapeutics Program. […] The stock solutions were prepared in dimethyl sulfoxide (DMSO, Sigma-Aldrich, St. Louis, MO, cat. D2650) at 800-fold the tested concentration and stored at -70 degrees C prior to their use. All drugs and investigational agents were tested over a range starting from a high concentration at or near the clinical Cmax and decreasing in half-log increments. If the clinical Cmax for an agent had not been determined, the highest concentration tested was 10 microM.
Cell Culture. All cells were maintained in an incubator at 37 degrees C and 5% CO2 with 95% humidity. The PDC lines were cultured according to standard operating procedures established by the NCI PDMR (https://pdmr.cancer.gov/sops/default.htm). Briefly, all PDCs were thawed and cultured in Matrigel-coated flasks prepared with a working solution of 1X Ham's F-12 nutrient mix, without supplementation (Invitrogen, Waltham, MA, cat. 11765054), 100 U/mL penicillin-streptomycin (Invitrogen, cat. 15140122), and 2.5% Matrigel (Corning Inc., Corning, NY, cat. 354248) for the first three passages. All PDCs were cultured in complete DMEM/F-12 media containing advanced DMEM/F-12 (Invitrogen, cat. 12634028), 4.9% defined fetal bovine serum, heat inactivated (HyClone Laboratories Inc., Logan, UT, cat. SH30070.03HI), 389 ng/mL hydrocortisone (Sigma-Aldrich, cat. H4001), 9.7 ng/mL human EGF recombinant protein (Invitrogen, cat. PHG0313), 23.4 microg/mL adenine (Sigma-Aldrich, cat. A2786), 97.3 U/mL penicillin-streptomycin (Invitrogen, cat. 15140122), 1.9 mM L-glutamine (Invitrogen, cat. 25030081), and 9.7 microM Y-27632 dihydrochloride (Tocris Bioscience, Bristol, United Kingdom, cat. 1254). The PDCs were cultured in complete DMEM/F12 media without 9.7 microM Y-27632 dihydrochloride for at least two passages prior to the screen. The established cell line HOP-62 was cultured in RPMI 1640 medium, HEPES (Invitrogen, cat. 22400105) with 10% defined fetal bovine serum (HyClone Laboratories Inc., cat. SH30070.03) and 2 mM L-glutamine (Invitrogen, cat. 25030081). The pooled donor HUVEC were cultured in endothelial cell growth medium 2 (PromoCell, Heidelberg, Germany, cat. C-22011) and the hMSC were cultured in mesenchymal stem cell growth medium 2 (PromoCell, cat. C-28009). For all experiments, HUVEC and hMSC were used at passages </=5, while the malignant cell lines were used at passages </=15. […]

[1] = second compound 0.0316 µM, first compound 0.0316 µM
[2] = second compound 0.0316 µM, first compound 0.1 µM
[3] = second compound 0.0316 µM, first compound 0.316 µM
[4] = second compound 0.0316 µM, first compound 1 µM
[5] = second compound 0.0316 µM, first compound 3.16 µM
[6] = second compound 0.0316 µM, first compound 10 µM
[7] = second compound 0.1 µM, first compound 0.0316 µM
[8] = second compound 0.1 µM, first compound 0.1 µM
[9] = second compound 0.1 µM, first compound 0.316 µM
[10] = second compound 0.1 µM, first compound 1 µM
[11] = second compound 0.1 µM, first compound 3.16 µM
[12] = second compound 0.1 µM, first compound 10 µM
[13] = second compound 0.316 µM, first compound 0.0316 µM
[14] = second compound 0.316 µM, first compound 0.1 µM
[15] = second compound 0.316 µM, first compound 0.316 µM
[16] = second compound 0.316 µM, first compound 1 µM
[17] = second compound 0.316 µM, first compound 3.16 µM
[18] = second compound 0.316 µM, first compound 10 µM
[19] = second compound 1 µM, first compound 0.0316 µM
[20] = second compound 1 µM, first compound 0.1 µM
[21] = second compound 1 µM, first compound 0.316 µM
[22] = second compound 1 µM, first compound 1 µM
[23] = second compound 1 µM, first compound 3.16 µM
[24] = second compound 1 µM, first compound 10 µM
[25] = second compound 3.16 µM, first compound 0.0316 µM
[26] = second compound 3.16 µM, first compound 0.1 µM
[27] = second compound 3.16 µM, first compound 0.316 µM
[28] = second compound 3.16 µM, first compound 1 µM
[29] = second compound 3.16 µM, first compound 3.16 µM
[30] = second compound 3.16 µM, first compound 10 µM
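Further: spheroids exposed to compounds for seven days before readout.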

Structure (SMILES)	IC50 (second compound 0.1 µM)	IC50 (second compound 0.316 µM)	IC50 (second compound 1 µM)	IC50 (second compound 3.16 µM)	viability, T/C [7]	viability, T/C [8]	viability, T/C [9]	viability, T/C [10]	viability, T/C [13]	viability, T/C [14]	viability, T/C [15]	viability, T/C [16]	viability, T/C [19]	viability, T/C [20]	viability, T/C [21]	viability, T/C [22]	viability, T/C [25]	viability, T/C [26]	viability, T/C [27]	viability, T/C [28]	further results
CC(C)NCC(C(=O)N1CCN(c2ncnc3c2C(C)CC3O)CC1)c1ccc(Cl)cc1 (stereo not given) + C=CC(=O)N1CCN(c2nc(OCC3CCCN3C)nc3c2CCN(c2cccc4cccc(C)c24)C3)CC1CC#N	254 nM	289 nM	224 nM	< 31.6 nM	90.8%	76.8%	42.5%	20.9%	87.7%	77.9%	44.7%	24.6%	79.9%	66.1%	43.7%	19%	0.14%	0.14%	0.1%	0.23%	IC50 (second compound 0.0316 µM): 313 nM; viability, T/C [1]: 95.7%; viability, T/C [2]: 69.4%; viability, T/C [3]: 52.3%; viability, T/C [4]: 30.7%; viability, T/C [5]: 16.9%; viability, T/C [6]: 6.91%; viability, T/C [11]: 15.2%; viability, T/C [12]: 7.07%; viability, T/C [17]: 15.7%; viability, T/C [18]: 5.1%; viability, T/C [23]: 8.97%; viability, T/C [24]: 4.67%; viability, T/C [29]: 0.21%; viability, T/C [30]: 0.13%
Cn1nccc1Nc1nccc(-c2cc3c(s2)C(C)(C)N(CCN2CCOCC2)C3=O)n1 + C=CC(=O)N1CCN(c2nc(OCC3CCCN3C)nc3c2CCN(c2cccc4cccc(C)c24)C3)CC1CC#N	59.7 nM	49.3 nM	< 31.6 nM	< 31.6 nM	70.2%	31.8%	21.5%	8.37%	62.2%	31%	14.8%	9.55%	41.5%	32.5%	13.6%	7.03%	0.13%	0.09%	0.07%	0.07%	IC50 (second compound 0.0316 µM): 44.7 nM; viability, T/C [1]: 57.1%; viability, T/C [2]: 33.1%; viability, T/C [3]: 20.7%; viability, T/C [4]: 8.51%; viability, T/C [5]: 7.52%; viability, T/C [6]: 5.99%; viability, T/C [11]: 7.54%; viability, T/C [12]: 5.51%; viability, T/C [17]: 7.33%; viability, T/C [18]: 4.36%; viability, T/C [23]: 4.51%; viability, T/C [24]: 3.02%; viability, T/C [29]: 0.07%; viability, T/C [30]: 0.17%
CCN1CCN(Cc2ccc(Nc3ncc(F)c(-c4cc(F)c5nc(C)n(C(C)C)c5c4)n3)nc2)CC1 + CNCc1ccccc1-c1csc(C(C)Nc2nc(C)nc3cc(OC)c(OC)cc23)c1	7.79 nM	3.7 nM	< 3.16 nM	< 3.16 nM	21.4%	14.4%	11.6%	3.5%	15.1%	16.1%	10.9%	2.1%	4.86%	5.28%	2.85%	2.48%	4.57%	0.17%	0.02%	0.07%	IC50 (second compound 10 µM): < 3.16 nM; viability, T/C (second compound 0.1 µM, first compound 0.00316 µM): 71%; viability, T/C (second compound 0.1 µM, first compound 0.01 µM): 45.5%; viability, T/C (second compound 0.316 µM, first compound 0.00316 µM): 53.5%; viability, T/C (second compound 0.316 µM, first compound 0.01 µM): 31.7%; viability, T/C (second compound 1 µM, first compound 0.00316 µM): 34.4%; viability, T/C (second compound 1 µM, first compound 0.01 µM): 11.7%; viability, T/C (second compound 3.16 µM, first compound 0.00316 µM): 0.3%; viability, T/C (second compound 3.16 µM, first compound 0.01 µM): 0.05%; viability, T/C (second compound 10 µM, first compound 0.00316 µM): 0.18%; viability, T/C (second compound 10 µM, first compound 0.01 µM): 0.06%; viability, T/C (second compound 10 µM, first compound 0.0316 µM): 0.06%; viability, T/C (second compound 10 µM, first compound 0.1 µM): 0.1%; viability, T/C (second compound 10 µM, first compound 0.316 µM): 0.07%; viability, T/C (second compound 10 µM, first compound 1 µM): 0.1%
